The source made the active and inactive calls. No cut-off for these calls is given here.

The target of test [1] is T1, Amine oxidase [flavin-containing] A (Homo sapiens, UniProt P21397).
T1 sequence (P21397 whole entry): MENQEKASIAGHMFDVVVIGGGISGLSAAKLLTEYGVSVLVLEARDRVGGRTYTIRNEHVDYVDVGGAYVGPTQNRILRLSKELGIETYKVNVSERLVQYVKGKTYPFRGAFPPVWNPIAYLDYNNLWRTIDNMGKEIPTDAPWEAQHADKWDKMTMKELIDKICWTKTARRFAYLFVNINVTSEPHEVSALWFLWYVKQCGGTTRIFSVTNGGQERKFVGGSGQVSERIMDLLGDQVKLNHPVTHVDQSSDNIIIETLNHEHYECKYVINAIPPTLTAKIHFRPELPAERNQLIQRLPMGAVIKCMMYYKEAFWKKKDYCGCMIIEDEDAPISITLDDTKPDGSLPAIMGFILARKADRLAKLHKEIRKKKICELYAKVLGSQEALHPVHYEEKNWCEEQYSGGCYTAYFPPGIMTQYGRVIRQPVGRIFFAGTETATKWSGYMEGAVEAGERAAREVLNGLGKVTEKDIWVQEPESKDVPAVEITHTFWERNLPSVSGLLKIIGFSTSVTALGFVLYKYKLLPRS
Kind of test: Inhibition of MAO-A (unknown origin) by multi-well spectrophotometry.

Test [2] deals with T2, Matrix metalloproteinase-9 (Homo sapiens, UniProt P14780). Put plainly: Inhibition of MMP9 (unknown origin) at 1.3 uM by colorimetric assay relative to control.
T2 sequence (P14780 whole entry): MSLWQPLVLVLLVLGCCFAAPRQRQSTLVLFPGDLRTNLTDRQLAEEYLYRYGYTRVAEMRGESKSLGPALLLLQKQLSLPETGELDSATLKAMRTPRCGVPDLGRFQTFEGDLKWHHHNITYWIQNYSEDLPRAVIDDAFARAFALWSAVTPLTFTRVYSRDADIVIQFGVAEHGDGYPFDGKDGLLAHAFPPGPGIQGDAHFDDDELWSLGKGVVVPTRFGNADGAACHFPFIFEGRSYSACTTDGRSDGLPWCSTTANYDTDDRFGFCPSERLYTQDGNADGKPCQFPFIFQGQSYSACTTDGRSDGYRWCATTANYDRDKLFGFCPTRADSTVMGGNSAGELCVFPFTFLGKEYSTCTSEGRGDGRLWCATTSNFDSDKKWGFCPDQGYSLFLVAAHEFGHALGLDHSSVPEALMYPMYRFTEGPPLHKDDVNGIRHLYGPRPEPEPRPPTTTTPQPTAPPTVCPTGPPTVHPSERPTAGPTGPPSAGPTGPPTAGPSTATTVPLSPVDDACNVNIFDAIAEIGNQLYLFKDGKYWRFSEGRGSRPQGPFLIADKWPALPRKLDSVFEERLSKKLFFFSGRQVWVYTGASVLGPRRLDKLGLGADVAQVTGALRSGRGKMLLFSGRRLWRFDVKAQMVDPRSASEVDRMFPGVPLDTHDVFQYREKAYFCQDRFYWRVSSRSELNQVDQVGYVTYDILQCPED
For test [3], the target named is T2, Matrix metalloproteinase-9. Put plainly: Inhibition of MMP9 (unknown origin) by colorimetric assay.
For another test, the system named is Epithelial cell. Put plainly: Cytotoxicity against albino rat epithelial rat by MTT assay. In kind it is cell-based.
The test system of test [4] is HCT-116. Put plainly: Anticancer activity against human HCT-116 cells overexpressing MMP9/MAO-A by MTT assay. In kind it is functional, cell-based.
A short description of test [5]: Selectivity index, ratio of IC50 for albino rat epithelial rat to IC50 for human HCT116 cells overexpressing MMP9/MAO-A.
Test [6] has as its system HCT-116. Put plainly: Anticancer activity against human HCT116 cells overexpressing MMP9 assessed as shrinkage incubated for 72 hrs by morphology alteration assay. In kind it is functional, cell-based.
The test system of test [7] is HCT-116. Put plainly: Inhibition of cell migration in human HCT116 cells assessed as suppression of cell migration incubated for 20 hrs by wound healing assay relative to control. In kind it is functional.
Test [8] deals with T3, Amine oxidase [flavin-containing] B (Homo sapiens, UniProt P27338).
T3 sequence (P27338 whole entry): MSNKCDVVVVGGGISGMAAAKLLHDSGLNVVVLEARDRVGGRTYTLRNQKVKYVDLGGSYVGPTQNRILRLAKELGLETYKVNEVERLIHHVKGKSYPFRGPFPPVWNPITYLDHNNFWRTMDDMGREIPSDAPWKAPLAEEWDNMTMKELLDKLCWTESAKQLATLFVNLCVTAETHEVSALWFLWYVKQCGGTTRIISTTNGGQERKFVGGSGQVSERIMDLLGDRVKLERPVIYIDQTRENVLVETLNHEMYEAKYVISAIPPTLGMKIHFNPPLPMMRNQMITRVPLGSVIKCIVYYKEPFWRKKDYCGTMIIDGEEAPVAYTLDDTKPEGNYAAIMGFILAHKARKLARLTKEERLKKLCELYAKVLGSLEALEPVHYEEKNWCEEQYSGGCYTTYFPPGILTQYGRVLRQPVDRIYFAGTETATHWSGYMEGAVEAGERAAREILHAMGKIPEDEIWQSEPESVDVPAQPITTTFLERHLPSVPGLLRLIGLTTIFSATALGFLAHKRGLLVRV
Kind of test: Inhibition of MAO-B (unknown origin) by fluorometric assay.

For another test, the species on record is Homo sapiens. Kind of test: Selectivity for MAO-B (unknown origin) to MAO-A (unknown origin).
Test [9] can be described thus: Suppression of HIF1alpha expression in human HCT116 cells assessed as fold change by qRT-PCR analysis. The format is functional, HCT-116. Background: Real-time PCR tracks product formation cycle by cycle.

As usually defined, the IC50 is the concentration at which inhibition is half-maximal. Turning to `c1ccc(Cc2nc3ccccc3n3cnnc23)cc1`, the IC50 in test [1] (read-out: IC50) worked out at 0.7 nM.

Usually inhibition stands for the drop in the measured response relative to a control, in per cent. Consider `O=C(CSc1nnc(-c2ccccc2)o1)NCc1ccc2c(c1)OCO2`, for which, in test [2], the inhibition came out at 30.5%.

`CC(C)c1ccc(-n2nnc(-c3ccc(S(=O)(=O)NCC(=O)O)cc3)n2)cc1`: it took 110 nM to reach half-maximal inhibition in test [3] (IC50).

`Nn1c(Cn2c(=O)c(Cc3ccccc3)nc3ccccc32)nnc1Cn1c(=O)c(Cc2ccccc2)nc2ccccc21`: the IC50 was found to be 6.04 nM with Epithelial cell and 14.9 nM in the test with HCT-116 [4]. Besides, the “Selectivity Index” value in test [5] turned out to be 0.405.

In the case of `O=C(O)Cn1c(=O)c(Cc2ccccc2)nc2ccccc21`, the results for the IC50 with Epithelial cell and in the test with HCT-116 [4] were 13300 nM and 15.8 nM, respectively. In addition, the “Selectivity Index” value in test [5] was 0.844.

For `CCOC(=O)NNC(=O)Cn1c(=O)c(Cc2ccccc2)nc2ccccc21`, the IC50 turned out to be 38.9 nM with Epithelial cell; 7.4 nM with HCT-116 [4]; 4.5 nM in test [3]; 11.9 nM in [1] (read-out: IC50); 11.2 nM in [8]. The “Selectivity Index” value in [5] was 5.266; in the test filed under Homo sapiens it was 2.07. For the same compound, in the test on HCT-116 [6], the result was Active. In the test with HCT-116 [7], the “inhibition (INH)” value is listed as 28.82%. The “fold change (FC)” value in [9] is reported as above 5.

Regarding `C(=N\NC1Nc2ccccc2N=C1Cc1ccccc1)/c1ccccc1` (configuration not stated), in test [1] (read-out: IC50), the IC50 stood at 81 nM.

Consider `O=c1c(Cc2ccccc2)nc2ccccc2n1Cc1nnc(S)n1-c1ccccc1`, for which the IC50 with Epithelial cell was found to be 7.78 nM; in the test with HCT-116 [4] it was 19.8 nM.

Take `O=C(Cn1c(=O)c(Cc2ccccc2)nc2ccccc21)NNC(=S)Nc1ccccc1`: the IC50 in the test on Epithelial cell turned out to be 16.1 nM; in the test on HCT-116 [4] it was 5.84 nM; in test [3] it was 8.41 nM; in test [1] (read-out: IC50), 5.41 nM; in [8] it was 6.81 nM. Besides, the entries for the “Selectivity Index” value (in [5]; in the test filed under Homo sapiens) were 2.751 and 0.649, respectively. In the test with HCT-116 [7], the “inhibition (INH)” value was found to be 21.27%. For the same compound, the “fold change (FC)” value in test [9] is reported as above 5.

With `O=c1c(Cc2ccccc2)nc2ccccc2n1CC(O)CCl` (configuration not stated), the IC50 in the test on Epithelial cell was found to be 16.3 nM; in the test with HCT-116 [4], 18.7 nM. For the same compound, in test [5], the “Selectivity Index” value was determined as 0.954.

On to `O=c1c(Cc2ccccc2)nc2ccccc2n1Cc1nnco1`, for which the IC50 in the test on Epithelial cell was 9.84 nM; in the test on HCT-116 [4], 45.9 nM.

For `C#CCN(C)CCCOc1ccc(Cl)cc1Cl` [CLORGILINE], in test [1], the IC50 entry was “Not Active”.

Turning to `Nn1c(S)nnc1Cn1c(=O)c(Cc2ccccc2)nc2ccccc21`, the figures for the IC50 in the test with Epithelial cell and with HCT-116 [4] were 5.42 nM and 36 nM, respectively. Also, the “Selectivity Index” value in test [5] is given as 0.15.

Take `CCOC(=O)Cn1c(=O)c(Cc2ccccc2)nc2ccccc21`: the IC50 in the test with Epithelial cell was determined as 10.2 nM; in the test with HCT-116 [4], 18.3 nM. In addition, the “Selectivity Index” value in [5] is 0.559.

In turn, `O=c1c(O)c(-c2ccc(O)c(O)c2)oc2cc(O)cc(O)c12` [QUERCETIN] showed an IC50 in test [3] of 174 nM.

For the compound `O=c1c(Cc2ccccc2)nc2ccccc2n1Cc1nnc(S)o1`, the IC50 with Epithelial cell stood at 5.29 nM; in the test on HCT-116 [4] it was 10.7 nM. The “Selectivity Index” value in [5] was determined as 0.512.

For the compound `Cc1ccc(C(=O)NNC(=O)Cn2c(=O)c(Cc3ccccc3)nc3ccccc32)cc1`, the IC50 is 49.7 nM in the test with Epithelial cell; 7.64 nM in the test with HCT-116 [4]; 23.1 nM in test [3]; 5.33 nM in [1] (read-out: IC50); 28.6 nM in test [8]. For the same compound, the “Selectivity Index” value in [5] is 6.51; in the test filed under Homo sapiens, 1.88. Further, the result in the test with HCT-116 [6] was Active. The “inhibition (INH)” value in the test with HCT-116 [7] was determined as 73.32%. Moreover, in [9], the “fold change (FC)” value was above 15.94.

Take `O=C(Cn1c(=O)c(Cc2ccccc2)nc2ccccc21)N/N=C/c1ccccc1O`: the IC50 in the test on Epithelial cell worked out at 8.12 nM; in the test on HCT-116 [4] it was 16300 nM. Moreover, the “Selectivity Index” value in test [5] was found to be 0.508.

Take `COc1cccc2c1C(=O)c1c(O)c3c(c(O)c1C2=O)C[C@@](O)(C(=O)CO)C[C@@H]3O[C@H]1C[C@H](N)[C@H](O)[C@H](C)O1` [DOXORUBICIN]: the IC50 is 9.79 nM with Epithelial cell and 761 nM in the test with HCT-116 [4]. Besides, in test [5], the “Selectivity Index” value was found to be 0.013.

As to `CC(C)(C)OC(=O)C(Cc1ccccc1)NC(=O)Cn1c(=O)c(Cc2ccccc2)nc2ccccc21` (configuration not stated), the IC50 in the test with Epithelial cell was found to be 26.1 nM; with HCT-116 [4], 22.3 nM; in test [1] (read-out: IC50) it was 15.2 nM. Moreover, the “Selectivity Index” value in test [5] is reported as 1.172.

Regarding `NNC(=O)Cn1c(=O)c(Cc2ccccc2)nc2ccccc21`, the IC50 in the test on Epithelial cell was found to be 10.6 nM; in the test with HCT-116 [4] it was 14.7 nM. For the same compound, the “Selectivity Index” value in test [5] amounted to 0.729.

With `O=C(Cn1c(=O)c(Cc2ccccc2)nc2ccccc21)NN=c1c(=O)c2ccccc2c1=O`, the IC50 in the test with Epithelial cell was determined as 7.98 nM; in the test with HCT-116 [4] it was 18.6 nM. In addition, in test [5], the “Selectivity Index” value is recorded as 0.435.

In the case of `O=c1c(Cc2ccccc2)nc2ccccc2n1CC(O)CO` (configuration not stated), the IC50 in the test with Epithelial cell came to 48.7 nM; in the test on HCT-116 [4] it was 8.81 nM; in [3], 9.3 nM; in test [1] (read-out: IC50) it was 24 nM; in test [8], 11 nM. Moreover, the “Selectivity Index” value is 5.52 in [5] and 0.921 in the test filed under Homo sapiens. Further, the outcome in the test with HCT-116 [6] was Active. Besides, in the test with HCT-116 [7], the “inhibition (INH)” value stood at 27.48%. Besides, the “fold change (FC)” value in test [9] is above 5.

Regarding `O=C(Cn1c(=O)c(Cc2ccccc2)nc2ccccc21)OCCNCCO`, the IC50 stood at 5.03 nM with Epithelial cell and 16.5 nM with HCT-116 [4].

`N=C(N)NS(=O)(=O)c1ccc(NC(=O)Cn2c(=O)c(Cc3ccccc3)nc3ccccc32)cc1`: the IC50 in the test on Epithelial cell is 8.97 nM; in the test with HCT-116 [4], 12.9 nM. The “Selectivity Index” value in test [5] worked out at 0.695.

Take `CNC(=O)C(Cc1ccccc1)NC(=O)C(CC(C)C)SC1CCCC1S` (configuration not stated): the IC50 in test [3] amounted to 0.57 nM.

With `NC(=S)NNC(=O)Cn1c(=O)c(Cc2ccccc2)nc2ccccc21`, the IC50 in the test on Epithelial cell was 53.7 nM; in the test on HCT-116 [4], 5.57 nM; in [3], 5.07 nM; in test [1] (read-out: IC50), 10.5 nM; in [8], 7.09 nM. The results for the “Selectivity Index” value (in test [5]; in the test filed under Homo sapiens) were 9.648 and 1.33, respectively. Further, the “inhibition (INH)” value in the test with HCT-116 [7] is listed as 61.29%. The “fold change (FC)” value in test [9] is above 11.02.

Take `O=C1CC(=O)N(C(=O)Cn2c(=O)c(Cc3ccccc3)nc3ccccc32)N1`: the IC50 in the test on Epithelial cell is 8.95 nM; in the test on HCT-116 [4], 16200 nM. Also, the “Selectivity Index” value in [5] turned out to be 0.553.

As to `COc1cc(/C=N/NC(N)=S)ccc1O`, in [3], the IC50 was 106 nM.

These data come from ChEMBL document CHEMBL4825689, “Halting colorectal cancer metastasis via novel dual nanomolar MMP-9/MAO-A quinoxaline-based inhibitors; design, synthesis, and evaluation” (Eur J Med Chem, 2021).
